Measurements taken from DBAASP.
Values after ≈ are worked out from the molar mass of the structure shown. Values joined by “and” are separate entries in the source; they are usually repeats but may differ in a detail not shown here. Equal values may be shown once.

Experiments:
Assay in all cases: ≥ marks a high value that may be exact or a test limit, other limits are often not marked, values filed in µg/mL are converted to µM
[1] = system: Aeromonas caviae IP67-16T
[2] = system: Saccharomyces cerevisiae IP118079
[3] = system: Aspergillus niger IP218-53
[4] = system: Aspergillus fumigatus IP1025-70
[5] = system: Staphylococcus aureus IP76-25
[6] = system: Candida albicans IP884-65
[7] = system: Trichophyton simii IP1063-74
[8] = system: Nocardia brasiliensis IP16-80
[9] = system: Cryptococcus neoformans IP960-67
Escherichia coli IP76-24 = system: Escherichia coli IP76-24
[10] = system: Enterococcus faecalis IP103214
Streptococcus mutans = system: Streptococcus mutans
Serratia sp. = system: Serratia sp.
Cryptococcus neoformans = system: Cryptococcus neoformans
Saccharomyces cerevisiae = system: Saccharomyces cerevisiae
Salmonella typhimurium = system: Salmonella typhimurium
Bacillus subtilis = system: Bacillus subtilis
Staphylococcus aureus = system: Staphylococcus aureus
Pseudomonas putida = system: Pseudomonas putida
Candida albicans = system: Candida albicans
Escherichia coli = system: Escherichia coli
[11] = system: Psychrobacter faecalis X29
[12] = system: Staphylococcus aureus ATCC 25923
[13] = system: Escherichia coli ATCC 25922
[14] = system: Klebsiella pneumoniae 08040724
Candida glabrata 090902 = system: Candida glabrata 090902
[15] = system: Enterococcus faecium 091299
Nocardia asteroides = system: Nocardia asteroides
[16] = system: Enterobacter cloacae CGMCC 1.57
[17] = system: Pseudomonas aeruginosa CGMCC 1.50
[18] = system: Enterococcus faecalis 981
[19] = system: Candida albicans ATCC 10231
[20] = system: Staphylococcus aureus ATCC 8530
Escherichia coli W160-37 = system: Escherichia coli W160-37
[21] = system: Pseudomonas aeruginosa NCTC 6751
[22] = system: Staphylococcus aureus A170
[23] = system: Staphylococcus epidermidis
[24] = system: Pseudomonas aeruginosa ATCC 27853
[25] = system: Candida albicans ATCC 37092
[26] = system: Klebsiella oxytoca ATCC 49131
[27] = system: Proteus vulgaris ATCC 49132
[28] = system: Micrococcus luteus ATCC 49732
[29] = system: Enterococcus faecalis ATCC 29212
[30] = system: Candida tropicalis ATCC 37097
[31] = system: Staphylococcus aureus ATCC 29213

CC[C@H](C)[C@H](NC(=O)CNC(=O)[C@H](CCCCN)NC(=O)[C@H](CC(C)C)NC(=O)[C@H](CCSC)NC(=O)[C@H](CC(N)=O)NC(=O)[C@H](CCCCN)NC(=O)[C@H](Cc1c[nH]c2ccccc12)NC(=O)[C@H](CC(C)C)NC(=O)[C@H](C)N)C(=O)NCC(=O)N[C@@H](CCCCN)C(N)=O [ALWKNMLKGIGK]
MIC [1]: 6 µM (≈ 8.15 µg/mL) | MIC [2]: 20 µM (≈ 27.2 µg/mL) | MIC [3]: ≥ 90 µM | MIC [4]: ≥ 90 µM | MIC [5]: ≥ 150 µM | MIC [6]: ≥ 40 µM | MIC [7]: ≥ 70 µM | MIC [8]: ≥ 150 µM | MIC [9]: 6 µM (≈ 8.15 µg/mL) | MIC (Escherichia coli IP76-24): 6 µM (≈ 8.15 µg/mL) | MIC [10]: 6 µM (≈ 8.15 µg/mL)

CC[C@H](C)[C@H](NC(=O)[C@H](CO)NC(=O)[C@H](CCCCN)NC(=O)[C@H](Cc1ccccc1)NC(=O)[C@H](CCCCN)NC(=O)[C@H](CCCCN)NC(=O)[C@H](CC(C)C)NC(=O)[C@@H]1CCCN1C(=O)[C@@H](NC(=O)[C@H](CCCCN)NC(=O)[C@@H](NC(=O)[C@@H](NC(=O)[C@H](C)N)C(C)C)C(C)C)C(C)C)C(=O)N[C@@H](CCCN=C(N)N)C(=O)N[C@@H](CCC(=O)O)C(=O)N[C@H](C(=O)N[C@@H](CCSC)C(=O)N[C@@H](CCCCN)C(=O)N[C@@H](CCC(=O)O)C(=O)N[C@@H](CCCCN)C(=O)NCC(=O)N[C@@H](CC(C)C)C(=O)N[C@@H](CC(C)C)C(=O)N[C@@H](CCC(=O)O)C(=O)N[C@@H](CC(=O)O)C(=O)N[C@@H](Cc1ccccc1)C(=O)O)[C@@H](C)O [AVVKVPLKKFKSIRETMKEKGLLEDF]
MIC (Streptococcus mutans): 16.5 µM (≈ 50 µg/mL) | MIC (Serratia sp.): ≥ 65.9 µM | MIC (Cryptococcus neoformans): ≥ 33 µM | MIC (Saccharomyces cerevisiae): 3.95 µM (≈ 12 µg/mL) | MIC (Salmonella typhimurium): 6.59 µM (≈ 20 µg/mL) | MIC (Bacillus subtilis): 16.5 µM (≈ 50 µg/mL) | MIC (Staphylococcus aureus): 33 µM (≈ 100 µg/mL) | MIC (Pseudomonas putida): ≥ 33 µM | MIC (Candida albicans): 33 µM (≈ 100 µg/mL) | MIC (Escherichia coli): 16.5 µM (≈ 50 µg/mL)

CC[C@H](C)[C@H](NC(=O)[C@H](CCCCN)NC(=O)[C@H](CC(C)C)NC(=O)[C@H](C)NC(=O)[C@@H](NC(=O)CNC(=O)[C@H](CCSC)NC(=O)[C@@H](N)Cc1ccccc1)[C@@H](C)O)C(=O)N[C@@H](C)C(=O)N[C@@H](C)C(=O)N[C@@H](CC(N)=O)C(=O)N[C@H](C(=O)N[C@@H](CC(C)C)C(=O)N1CCC[C@H]1C(=O)N[C@@H](C)C(=O)N[C@@H](C)C(=O)N[C@@H](Cc1ccccc1)C(=O)N[C@H]1CSSC[C@@H](C(=O)O)NC(=O)[C@H](CCCCN)NC(=O)[C@H](CCCCN)NC(=O)[C@H](Cc2ccccc2)NC(=O)[C@H]([C@@H](C)CC)NC(=O)[C@H](CCCCN)NC1=O)C(C)C [FMGTALKIAANVLPAAFCKIFKKC]
MIC [11]: 12.5 µM (≈ 32.3 µg/mL) | MIC [12]: 3.1 µM (≈ 8.01 µg/mL) | MIC [13]: 200 µM (≈ 517 µg/mL) | MIC [14]: ≥ 400 µM | MIC (Candida glabrata 090902): 12.5 µM (≈ 32.3 µg/mL) | MIC [15]: ≥ 100 µM | MIC (Nocardia asteroides): 3.1 µM (≈ 8.01 µg/mL) | MIC [16]: ≥ 100 µM | MIC [17]: ≥ 400 µM | MIC [18]: 3.1 µM (≈ 8.01 µg/mL) | MIC [19]: 100 µM (≈ 258 µg/mL)

CC(=O)N[C@@H](Cc1ccccc1)C(=O)N[C@@H](CCCN=C(N)N)C(=O)N[C@@H](CCCCN)C(=O)N[C@@H](CC(C)C)C(=O)N[C@@H](Cc1ccccc1)C(=O)N[C@@H](CCCN=C(N)N)C(=O)N[C@H](C(=O)N[C@@H](Cc1ccc(O)cc1)C(=O)N[C@@H](CO)C(=O)N[C@@H](CC(N)=O)C(=O)N[C@@H](Cc1ccccc1)C(=O)N[C@@H](CC(C)C)C(=O)N[C@@H](CCCN=C(N)N)C(=O)NCC(=O)N[C@@H](CCCCN)C(=O)N[C@@H](CC(C)C)C(=O)N[C@@H](CCCCN)C(=O)N[C@@H](CC(C)C)C(N)=O)C(C)C [FRKLFRVYSNFLRGKLKL]
MIC [20]: 11 µM (≈ 25.6 µg/mL) | MIC (Escherichia coli W160-37): 11 µM (≈ 25.6 µg/mL) | MIC [21]: 22 µM (≈ 51.2 µg/mL)

CC[C@H](C)[C@H](NC(=O)[C@@H]1CCCN1C(=O)[C@H](CC(C)C)NC(=O)[C@@H](N)CC(C)C)C(=O)N[C@H](C(=O)NCC(=O)N[C@@H](C)C(=O)N[C@@H](CC(C)C)C(=O)N[C@@H](CC(C)C)C(=O)N[C@@H](CCCCN)C(=O)N[C@@H](CO)C(=O)N[C@@H](CC(C)C)C(=O)N[C@@H](CC(C)C)C(=O)O)C(C)C [LLPIVGALLKSLL]
MIC [22]: 14.8 µM (≈ 20 µg/mL) | MIC [23]: 7.41 µM (≈ 10 µg/mL)

CC(C)C[C@H](NC(=O)[C@H](CCCN=C(N)N)NC(=O)[C@H](CCCN=C(N)N)NC(=O)[C@H](Cc1ccc(O)cc1)NC(=O)[C@H](CC(C)C)NC(=O)[C@H](CCCN=C(N)N)NC(=O)[C@H](CCCN=C(N)N)NC(=O)[C@H](Cc1ccc(O)cc1)NC(=O)[C@H](CC(C)C)NC(=O)[C@H](CCCN=C(N)N)NC(=O)[C@H](CCCN=C(N)N)NC(=O)[C@H](Cc1ccc(O)cc1)NC(=O)[C@H](CC(C)C)NC(=O)[C@@H](N)CCCN=C(N)N)C(=O)N[C@@H](Cc1ccc(O)cc1)C(=O)N[C@@H](CCCN=C(N)N)C(N)=O [RLYRRLYRRLYRRLYR]
MIC [13]: 1 µM and 0.7 µM | MIC [24]: 0.5 µM and 1 µM | MIC [25]: 1.2 µM and 1.9 µM | MIC [26]: 0.9 µM (≈ 2.13 µg/mL) | MIC [27]: 1.8 µM and 1.2 µM | MIC [28]: 0.6 µM (≈ 1.42 µg/mL) | MIC [29]: 0.9 µM and 1.4 µM | MIC [30]: 0.8 µM and 1.2 µM | MIC [31]: 1.8 µM and 1.1 µM
